Legend:
[1] = test system: IMQ-induced mouse psoriasis model; experiment: Pharmacodynamic test in the IMQ-induced mouse psoriasis model; assay type: in vivo, female Balb/c mice; parameters: key to Skin PASI score Erythema / Skin PASI score Scaling / Skin PASI score Thickness: PASI component score, 0-4 points; key to Skin PASI Total Score: sum of erythema, scaling, thickness scores (each 0-4); key to Skin pathological score: sum of histopathology criterion points; conditions: for Epidermal thickness / IL-6 content in skin (ELISA) / Skin pathological score / Spleen weight / Spleen weight/body weight (spleen index) / TNF-alpha content in skin (ELISA): after 14 days of treatment
Source text: The purpose of this test was to evaluate the pharmacodynamics of Compound (I) in the IMQ (5% imiquimod cream cream)-induced mouse psoriasis model. One of the clinical adverse effects of imiquimod is to induce the onset of psoriasis.
• Test medicament: Compound (I) • Positive control medicament: dexamethasone (Dex) • Vehicle: 0.4% Tween 80/0.5% methylcellulose.
• female Balb/c mice aged 5-6 weeks, number: 70.
The animals were randomly divided into seven groups according to the body weights on the day before the start of the experiment.
The animals were shaved on their back one day before applying the medicament, forming a skin exposure area having a size of about 2 cm×3 cm. The mice were induced by IMQ, and applied with 62.5 mg of 5% imiquimod cream on the bare back and the right ear at regular intervals every day for 14 days. Mice in the normal control group were applied with vaseline on the bare back and the right ear at regular intervals every day.
The skin thickness was measured daily from the first day of the test until the end of the test.
The skin thickness measurement method was as follows: the back skin and the subcutaneous tissue of the mouse were pinched with the thumb and the index finger of the left hand in the same direction as the mouse body; the skinfold thickness was measured 1 cm away from the pinched part of the left hand (near the center of the molding part) with a digital thickness gauge (with millesimal reading) held in the right hand (model BK-3281, manufacturer: Shanghai Niuhui). The thickness was in mm, and the actual thickness was the half of the measured thickness (the skin thickness=the measured value/2).
The ear thickness was measured daily (at the center of the auricle).
Skin photographs were taken daily from the first day of the test until the end of the test.
The clinical symptoms were evaluated with the PASI evaluation standard from three indicators of the erythema (Erythema), the scale (Scaling) and the skin thickness (Thickness), and scored with 0-4 points. The total score was obtained by summing the three scores. The PASI evaluation standard was as follows: 0, asymptomatic; 1, mild; 2, moderate; 3, severe; 4, extremely severe.
Erythema: 0—no erythema visible; 1—light red; 2—red; 3—dark red; 4—extremely dark red.
Scaling: 0—no visible scale on the skin surface; 1—part of the skin lesion surface covered with scales; 2—most of the skin lesion surface covered with scales; 3—almost all of the skin lesion region covered with scales; 4—all of the skin lesion region covered with scales.
Dryness and pruritus are not included in the total score.
On the 14th day of the test, the spleen weight was collected.
After the test, all mice were euthanized by excessive inhalation of carbon dioxide. The skin was collected and divided into four parts, one of which was fixed in a tissue fixative solution for 24 hours for the pathological is detection. It was dehydrated, then embedded in paraffin and made into 4-micron sections. Skin sections were stained with hematoxylin eosin to observe the infiltration of the stratum corneum, the epidermal layer, the dermis layer and the inflammatory cell. When measuring the thickness of the epidermal layer, the stained skin sections were scanned with a Leca Aperio CS2 scanner at 200×magnification, and then the histopathological changes were observed and scored.
The specific criteria of the pathological score were as follows: munro microabscess found in the epidermal layer 2.0 points; hyperkeratosis 0.5 points; parakeratosis 1.0 points; the thinning or disappearing of the granular layer 1.0 points; the thickening of acanthosis 1.0 points; the extension and fluctuation of cuticular process 0.5, 1.0 and 1.5 points respectively according to the mild, moderate and severe degrees. […]

[2] = Rat effective dose for safety window calculation; assay type: in vivo

NC(=O)c1cnc(Nc2ccc3c(c2)OC[C@H]2CN(S(=O)(=O)C4CC4)CCN32)nc1NC1CC1 [Compound (I), (R)-4-(cyclopropylamino)-2-((3-(cyclopropylsulfonyl)-1,2,3,4,4a,5-hexahydrobenzo[b]pyrazolo[1,2-d][1,4]oxazin-8-yl)amino)pyrimidine-5-arboxamide]
Ear thickness Left ([1]; 3 mpk PO bid, 1st Day): 0.15 ± 0.00 mm | Ear thickness Right ([1]; 3 mpk PO bid, 1st Day): 0.15 ± 0.00 mm | Ear thickness Right-Left ([1]; 3 mpk PO bid, 1st Day): 0.00 ± 0.00 mm | Skin PASI Total Score ([1]; 3 mpk PO bid, 1st Day): 0.00 ± 0.00 | Skin PASI score Erythema ([1]; 3 mpk PO bid, 1st Day): 0.00 ± 0.00 | Skin PASI score Scaling ([1]; 3 mpk PO bid, 1st Day): 0.00 ± 0.00 | Skin PASI score Thickness ([1]; 3 mpk PO bid, 1st Day): 0.00 ± 0.00 | Skin thickness ([1]; 3 mpk PO bid, 1st Day): 0.32 ± 0.00 mm | Ear thickness Left ([1]; 3 mpk PO bid, 14th Day): 0.16 ± 0.00 mm | Ear thickness Right ([1]; 3 mpk PO bid, 14th Day): 0.48 ± 0.01 mm | Ear thickness Right-Left ([1]; 3 mpk PO bid, 14th Day): 0.32 ± 0.01 mm | Skin PASI Total Score ([1]; 3 mpk PO bid, 14th Day): 8.10 ± 0.23 | Skin PASI score Erythema ([1]; 3 mpk PO bid, 14th Day): 3.00 ± 0.00 | Skin PASI score Scaling ([1]; 3 mpk PO bid, 14th Day): 2.30 ± 0.15 | Skin PASI score Thickness ([1]; 3 mpk PO bid, 14th Day): 2.80 ± 0.13 | Skin thickness ([1]; 3 mpk PO bid, 14th Day): 0.51 ± 0.01 mm | Epidermal thickness ([1]; 3 mpk PO bid): 136.10 ± 5.96 μm | IL-6 content in skin (ELISA) ([1]; 3 mpk PO bid): 554.74 ± 88.14 pg/g | Skin pathological score ([1]; 3 mpk PO bid): 7.75 ± 0.39 | Spleen weight ([1]; 3 mpk PO bid): 231.44 ± 12.72 mg | Spleen weight/body weight (spleen index) ([1]; 3 mpk PO bid): 14.46 ± 0.71 mg/g | TNF-alpha content in skin (ELISA) ([1]; 3 mpk PO bid): 1191.74 ± 124.81 pg/g | Ear thickness Left ([1]; 10 mpk PO bid, 1st Day): 0.14 ± 0.00 mm | Ear thickness Right ([1]; 10 mpk PO bid, 1st Day): 0.14 ± 0.00 mm | Ear thickness Right-Left ([1]; 10 mpk PO bid, 1st Day): 0.00 ± 0.00 mm | Skin PASI Total Score ([1]; 10 mpk PO bid, 1st Day): 0.00 ± 0.00 | Skin PASI score Erythema ([1]; 10 mpk PO bid, 1st Day): 0.00 ± 0.00 | Skin PASI score Scaling ([1]; 10 mpk PO bid, 1st Day): 0.00 ± 0.00 | Skin PASI score Thickness ([1]; 10 mpk PO bid, 1st Day): 0.00 ± 0.00 | Skin thickness ([1]; 10 mpk PO bid, 1st Day): 0.32 ± 0.00 mm | Ear thickness Left ([1]; 10 mpk PO bid, 14th Day): 0.15 ± 0.00 mm | Ear thickness Right ([1]; 10 mpk PO bid, 14th Day): 0.44 ± 0.00 mm | Ear thickness Right-Left ([1]; 10 mpk PO bid, 14th Day): 0.28 ± 0.00 mm | Skin PASI Total Score ([1]; 10 mpk PO bid, 14th Day): 7.70 ± 0.60 | Skin PASI score Erythema ([1]; 10 mpk PO bid, 14th Day): 2.90 ± 0.10 | Skin PASI score Scaling ([1]; 10 mpk PO bid, 14th Day): 2.40 ± 0.27 | Skin PASI score Thickness ([1]; 10 mpk PO bid, 14th Day): 2.40 ± 0.27 | Skin thickness ([1]; 10 mpk PO bid, 14th Day): 0.53 ± 0.02 mm | Epidermal thickness ([1]; 10 mpk PO bid): 131.63 ± 7.15 μm | IL-6 content in skin (ELISA) ([1]; 10 mpk PO bid): 641.83 ± 96.28 pg/g | Skin pathological score ([1]; 10 mpk PO bid): 7.45 ± 0.80 | Spleen weight ([1]; 10 mpk PO bid): 182.01 ± 9.11 mg | Spleen weight/body weight (spleen index) ([1]; 10 mpk PO bid): 11.71 ± 0.56 mg/g | TNF-alpha content in skin (ELISA) ([1]; 10 mpk PO bid): 1432.02 ± 152.77 pg/g | Ear thickness Left ([1]; 30 mpk PO bid, 1st Day): 0.14 ± 0.00 mm | Ear thickness Right ([1]; 30 mpk PO bid, 1st Day): 0.14 ± 0.00 mm | Ear thickness Right-Left ([1]; 30 mpk PO bid, 1st Day): 0.00 ± 0.00 mm | Skin PASI Total Score ([1]; 30 mpk PO bid, 1st Day): 0.00 ± 0.00 | Skin PASI score Erythema ([1]; 30 mpk PO bid, 1st Day): 0.00 ± 0.00 | Skin PASI score Scaling ([1]; 30 mpk PO bid, 1st Day): 0.00 ± 0.00 | Skin PASI score Thickness ([1]; 30 mpk PO bid, 1st Day): 0.00 ± 0.00 | Skin thickness ([1]; 30 mpk PO bid, 1st Day): 0.32 ± 0.00 mm | Ear thickness Left ([1]; 30 mpk PO bid, 14th Day): 0.16 ± 0.00 mm | Ear thickness Right ([1]; 30 mpk PO bid, 14th Day): 0.41 ± 0.01 mm | Ear thickness Right-Left ([1]; 30 mpk PO bid, 14th Day): 0.26 ± 0.01 mm | Skin PASI Total Score ([1]; 30 mpk PO bid, 14th Day): 5.50 ± 0.31 | Skin PASI score Erythema ([1]; 30 mpk PO bid, 14th Day): 2.90 ± 0.10 | Skin PASI score Scaling ([1]; 30 mpk PO bid, 14th Day): 1.20 ± 0.13 | Skin PASI score Thickness ([1]; 30 mpk PO bid, 14th Day): 1.40 ± 0.16 | Skin thickness ([1]; 30 mpk PO bid, 14th Day): 0.50 ± 0.01 mm | Epidermal thickness ([1]; 30 mpk PO bid): 121.75 ± 8.17 μm | IL-6 content in skin (ELISA) ([1]; 30 mpk PO bid): 638.09 ± 59.63 pg/g | Skin pathological score ([1]; 30 mpk PO bid): 5.55 ± 0.90 | Spleen weight ([1]; 30 mpk PO bid): 146.81 ± 7.71 mg | Spleen weight/body weight (spleen index) ([1]; 30 mpk PO bid): 9.27 ± 0.47 mg/g | TNF-alpha content in skin (ELISA) ([1]; 30 mpk PO bid): 1236.41 ± 100.8 pg/g | Ear thickness Left ([1]; 60 mpk PO bid, 1st Day): 0.14 ± 0.00 mm | Ear thickness Right ([1]; 60 mpk PO bid, 1st Day): 0.14 ± 0.00 mm | Ear thickness Right-Left ([1]; 60 mpk PO bid, 1st Day): 0.00 ± 0.00 mm | Skin PASI Total Score ([1]; 60 mpk PO bid, 1st Day): 0.00 ± 0.00 | Skin PASI score Erythema ([1]; 60 mpk PO bid, 1st Day): 0.00 ± 0.00 | Skin PASI score Scaling ([1]; 60 mpk PO bid, 1st Day): 0.00 ± 0.00 | Skin PASI score Thickness ([1]; 60 mpk PO bid, 1st Day): 0.00 ± 0.00 | Skin thickness ([1]; 60 mpk PO bid, 1st Day): 0.33 ± 0.01 mm | Ear thickness Left ([1]; 60 mpk PO bid, 14th Day): 0.15 ± 0.00 mm | Ear thickness Right ([1]; 60 mpk PO bid, 14th Day): 0.38 ± 0.01 mm | Ear thickness Right-Left ([1]; 60 mpk PO bid, 14th Day): 0.22 ± 0.01 mm | Skin PASI Total Score ([1]; 60 mpk PO bid, 14th Day): 4.60 ± 0.34 | Skin PASI score Erythema ([1]; 60 mpk PO bid, 14th Day): 2.00 ± 0.15 | Skin PASI score Scaling ([1]; 60 mpk PO bid, 14th Day): 1.20 ± 0.13 | Skin PASI score Thickness ([1]; 60 mpk PO bid, 14th Day): 1.40 ± 0.16 | Skin thickness ([1]; 60 mpk PO bid, 14th Day): 0.43 ± 0.02 mm | Epidermal thickness ([1]; 60 mpk PO bid): 113.28 ± 6.95 μm | IL-6 content in skin (ELISA) ([1]; 60 mpk PO bid): 499.72 ± 95.81 pg/g | Skin pathological score ([1]; 60 mpk PO bid): 5.05 ± 0.88 | Spleen weight ([1]; 60 mpk PO bid): 125.73 ± 4.63 mg | Spleen weight/body weight (spleen index) ([1]; 60 mpk PO bid): 8.01 ± 0.28 mg/g | TNF-alpha content in skin (ELISA) ([1]; 60 mpk PO bid): 1188.81 ± 159.63 pg/g | AUC ([2]; in vivo, rat effective dose 3 mg/kg/time BID): 4310 ng·h/mL | Safety window, dose method ([2]; rat effective dose (reference)): 1 fold | Effective dose for rats ([2]; rats): 3 mg/kg/time bid
